Source: patent US11680043B2 (priority 2021, dated 2023)
Several values for one entry are separate records, joined by “and”; a condition that tells them apart may be missing. Identical values can stand only once. Counter-ions that a name gives are not always drawn.

Assay: Solubility of psilocin salts in saline
Conditions: for XRPD of Residue: solid residue after 5 hrs in saline (Table 9)
[1] = Saline, updated summary (Table 10)
[2] = pH of saturated solution in saline (Table 9)

Row | Structure (SMILES) | pH at 5 hrs [1] | pH at 5 hrs [2] | XRPD of Residue | pH at 5 hrs (Saline, updated summary (Table 10), hydrochloride) | pH at 5 hrs (pH of saturated solution in saline (Table 9), hydrochloride) | Solubility in Saline (Table 4 summary)
1 | CN(C)CCc1c[nH]c2cccc(O)c12.O=S(=O)(O)c1cccc2c(S(=O)(=O)O)cccc12 [Psilocin 1,5-napthalenedisulfonate NAP Pattern 1] | 2.0 | 2.0 | NAP Pattern 1 | – | – | –
2 | CN(C)CCc1c[nH]c2cccc(O)c12.O=C(O)c1ccccc1O [Psilocin salicylate SAL Pattern 1, Psilocin salicylate] | 4.2 | 4.2 | SAL Pattern 1 | – | – | –
3 | CN(C)CCc1c[nH]c2cccc(O)c12 [Psilocin hydrochloride HCl Pattern 1, Psilocin hydrochloride] | – | – | – | 4.0 and 5.4 | 6.0 and 6.1 | –
4 | CN(C)CCc1c[nH]c2cccc(O)c12.O=C(O)c1ccccc1 [Psilocin benzoate BEN Pattern 1, Psilocin benzoate] | 6.8 and 6.9 | 6.8 and 6.9 | BEN Pattern 1 | – | – | 5000 µg/mL
5 | CN(C)CCc1c[nH]c2cccc(O)c12 [Psilocin free base, Psilocin, reference compound] | 9.8 and 9.9 | 9.8 and 9.9 | Freeform Pattern 1 | – | – | –
